# US10851108B2, “Substituted bicyclic heterocyclic compounds” (BRISTOL-MYERS SQUIBB COMPANY, priority 2016, dated 2020)
# Columns and labels:
# Format in all cases: cell-based
# hROMK (human Kir1.1) = hROMK (human Kir1.1) (Homo sapiens (Human), UniProt P48048); assay: Thallium Flux Assay; settings: CHO T-Rex hROMK stable cell line, 10-point concentration response; read-out: hROMK Th+ Flux IC50
# Summary of the method: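 CHO T-Rex cells, doxycycline-induced (0.5 μg/ml) one day before, FluxOR dye-loaded; compounds 30 min, then Tl+ stimulus (final 3 mM Tl2SO4, 0.15 mM K2SO4) with ouabain in chloride-free buffer. Fluorescence 488/525 nm for 90 s; IC50 from 10-point curve; DMSO 0.5 or 1%.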
# hROMK = hROMK (Homo sapiens (Human), UniProt P48048); assay: ROMK Manual Patch Clamp Assay; settings: whole-cell manual patch clamp, hROMK expressing cells; read-out: hROMK EP IC50
# Description: ROMK Manual Patch Clamp Assay
# Cell culture conditions: Cells were maintained in conditions similar to those for Thallium flux assay. hROMK channel expression was induced by adding 0.6 μg/ml of Doxycycline 16-24 hrs prior to the experiments. On the day of experiment, the cells were dissociated using Versene, resuspended in growth media and plated onto coverslips 15 minutes prior to use.
# Electrophysiology: The coverslip plated with cells was placed in the experiment chamber perfused with bath solution composed of (in mM): 135 NaCl, 5 KCl, 2 CaCl2, 1 MgCl2, 10 HEPES, 5 Glucose (pH 7.4). Patch pipettes with resistance between 2-5 Megaohms, when filled with a solution containing (in mM): 135 KCl, 1 EGTA, 1 MgCl2, 10 HEPES, 2 Na2ATP (pH 7.3), were used to form gigaseals. The cells were voltage clamped at −75 mV in whole-cell configuration using an Axopatch 200b or Multiclamp 700b (Molecular Devices) amplifier controlled by pClamp Software (Molecular Devices). The current was recorded by applying a voltage step to −120 mV every 10 seconds. For each compound, 4-6 concentrations were applied for 3-8 minutes in a successive manner starting with the lowest concentration. At the end of the experiment, the cells were perfused with bath solution containing 2 mM Ba^2+ to isolate the contribution of hROMK current.
# Data analysis: Raw current values (5 traces each for control, different compound concentration and Ba^2+ treatment groups) were exported from Clampfit into Microsoft Excel where the current remaining after application of Ba^2+ was subtracted from raw current to obtain hROMK specific current. These hROMK current values (average of 5 traces for each group) were then imported into a custom made template to generate a concentration response curve, which was subsequently fitted with a four parameter equation to calculate the IC50 value of the test compound.
# The data in Table 4 is reported with two significant figures.
# hERG = hERG (Homo sapiens (Human), UniProt Q12809); assay: hERG Manual Patch Clamp Assay; settings: human, HEK 293 cells stably expressing hERG channels; for inhibition at 1 µM: pH 7.4, 1 μM, read-out: hERG EP IC50 (% Inhibition at 1 μM)
# Description: hERG Manual Patch Clamp Assay
# hERG electrophysiology assay: The experimental compounds were assessed for hERG activity on HEK 293 cells stably expressing hERG channels using patch clamp technique. Coverslips plated with hERG expressing cells were placed in the experimental chamber and were perfused with a solution composed of (in mM): 140 NaCl, 4 KCl, 1.8 CaCl2, 1 MgCl2, 10 Glucose, 10 HEPES (pH 7.4, NaOH) at room temperature. Borosilicate patch pipettes had tip resistances of 2-4 Mohms when filled with an internal solution containing: 130 KCl, 1 MgCl2, 1 CaCl2, 10 EGTA, 10 HEPES, 5 ATP-K2 (pH 7.2, KOH). The cells were clamped at −80 mV in whole cell configuration using an Axopatch 200B (Axon instruments, Union City, Calif.) patch clamp amplifier controlled by pClamp (Axon instruments) software. Upon formation of a gigaseal, the following voltage protocol was repeatedly (0.05 Hz) applied to record tail currents: depolarization step from −80 mV to +20 mV for 2 seconds followed by a hyperpolarization step to −65 mV (3 seconds) to elicit tail currents. Compounds were applied after stabilization of tail current. First, tail currents were recorded in presence of extracellular solution alone (control) and subsequently, in extracellular solution containing increasing compound concentrations. Each compound concentration was applied for 2-5 minutes. The percentage inhibition at each concentration was calculated as reduction in peak tail current with respect to the peak tail current recorded in the presence of control solution. Data analysis was performed in a custom made template. The percent inhibitions at different concentrations were plotted to obtain a concentration response curve, which was subsequently fitted with a four parameter equation to calculate hERG IC50 value.
# A lower hERG % Inhibition value indicates less inhibition of the hERG current
# hERG, sequence (Q12809 whole entry): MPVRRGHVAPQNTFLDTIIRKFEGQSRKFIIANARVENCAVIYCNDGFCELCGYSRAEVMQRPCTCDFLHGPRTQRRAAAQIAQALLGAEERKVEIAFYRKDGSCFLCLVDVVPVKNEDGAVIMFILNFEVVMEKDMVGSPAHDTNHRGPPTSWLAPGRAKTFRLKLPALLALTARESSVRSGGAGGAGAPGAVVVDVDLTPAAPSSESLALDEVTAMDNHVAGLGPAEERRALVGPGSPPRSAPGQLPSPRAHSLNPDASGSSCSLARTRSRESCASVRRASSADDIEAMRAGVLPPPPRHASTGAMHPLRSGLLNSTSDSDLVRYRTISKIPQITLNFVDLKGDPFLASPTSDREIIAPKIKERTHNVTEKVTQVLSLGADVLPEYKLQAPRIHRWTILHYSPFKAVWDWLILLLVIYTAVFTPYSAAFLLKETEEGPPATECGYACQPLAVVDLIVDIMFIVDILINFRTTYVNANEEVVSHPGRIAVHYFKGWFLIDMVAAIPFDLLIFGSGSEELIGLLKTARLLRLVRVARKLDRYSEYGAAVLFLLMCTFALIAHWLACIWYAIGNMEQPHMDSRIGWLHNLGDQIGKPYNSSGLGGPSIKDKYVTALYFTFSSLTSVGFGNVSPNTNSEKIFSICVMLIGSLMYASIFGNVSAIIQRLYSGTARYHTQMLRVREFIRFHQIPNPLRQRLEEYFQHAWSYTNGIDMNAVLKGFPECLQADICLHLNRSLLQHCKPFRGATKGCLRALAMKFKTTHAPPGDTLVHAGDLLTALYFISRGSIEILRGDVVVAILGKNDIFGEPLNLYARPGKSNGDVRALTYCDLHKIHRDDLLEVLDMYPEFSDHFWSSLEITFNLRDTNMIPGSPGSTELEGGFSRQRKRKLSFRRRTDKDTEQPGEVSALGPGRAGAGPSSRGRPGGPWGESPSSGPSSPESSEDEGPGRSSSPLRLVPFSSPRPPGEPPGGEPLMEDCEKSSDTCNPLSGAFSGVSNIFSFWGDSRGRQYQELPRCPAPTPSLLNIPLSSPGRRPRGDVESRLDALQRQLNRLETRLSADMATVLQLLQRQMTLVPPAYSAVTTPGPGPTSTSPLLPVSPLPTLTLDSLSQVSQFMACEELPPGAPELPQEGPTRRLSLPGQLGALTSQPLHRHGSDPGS
# hROMK (human Kir1.1), sequence (P48048 whole entry): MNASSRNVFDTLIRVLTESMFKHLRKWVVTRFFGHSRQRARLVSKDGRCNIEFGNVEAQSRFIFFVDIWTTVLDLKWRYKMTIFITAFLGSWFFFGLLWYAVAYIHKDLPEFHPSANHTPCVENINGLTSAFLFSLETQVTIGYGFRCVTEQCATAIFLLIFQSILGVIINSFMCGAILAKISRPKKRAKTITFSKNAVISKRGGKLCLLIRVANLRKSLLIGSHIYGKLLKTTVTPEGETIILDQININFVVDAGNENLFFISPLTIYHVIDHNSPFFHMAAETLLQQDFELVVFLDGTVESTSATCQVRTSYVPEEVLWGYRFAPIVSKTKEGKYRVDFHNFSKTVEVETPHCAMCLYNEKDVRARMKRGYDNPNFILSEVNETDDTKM
# hROMK, sequence (P48048 whole entry): as above
smiles,measurement,setting,value
"Cc1c(C(O)CN2CCc3nc(-n4cc(C#N)c5ncccc54)ncc3C2)ccc2c1COC2=O (single isomer, unassigned) [Example 68-I, 1-(6-(2-hydroxy-2-(4-methyl-1-oxo-1,3-dihydroisobenzofuran-5-yl)ethyl)-5,6,7,8-tetrahydropyrido[4,3-d]pyrimidin-2-yl)-1H-pyrrolo[3,2-b]pyridine-3-carbonitrile]",IC50,hROMK (human Kir1.1),29 nM
same,IC50,hROMK,23 nM
same,inhibition at 1 µM,hERG,22%
same,inhibition at 3 µM,"hERG; pH 7.4, 3 uM, read-out: hERG EP % Inhibition at 3 uM",54%
same,inhibition at 10 µM,"hERG; pH 7.4, 10 uM, read-out: hERG EP % Inhibition at 10 uM",86%
"N#Cc1ccc(Nc2ccc3c(c2)CCN(Cc2ccc4c(c2)COC4=O)C3)cc1F [Example 4, 2-fluoro-4-((2-((1-oxo-1,3-dihydroisobenzofuran-5-yl)methyl)-1,2,3,4-tetrahydroisoquinolin-6-yl)amino)benzonitrile]",IC50,hROMK (human Kir1.1),29 nM
same,IC50,hROMK,31 nM
same,inhibition at 1 µM,hERG,94%
